Values of other authors in patent US12447051B2, “Multi-functional analgesic-releasing wound dressing” (University of Utah Research Foundation, priority 2020, dated 2025).

Tests used:
[1] = tested on: Primary human dermal fibroblast cell cultures; conditions: bupivacaine concentration of the extracts

| in vivo degradation | Compound | cytotoxic threshold [1] |
| --- | --- | --- |
| greater than 6 months | poly(lactide-co-caprolactone) [PLC] |  |
|  | CCCCN1CCCCC1C(=O)Nc1c(C)cccc1C (centres unmarked) [bupivacaine] | 0.5 % w/w |
